# Measurements: US7989590B2, “Peptides that increase collagen or hyaluronic acid production” (Rohto Pharmaceutical Co., Ltd, priority 2005, dated 2011)
# Like-named read-outs stand apart in the source and are kept apart here. Where a SMILES comes first, the peptide text is derived from it. Where no end group is shown, it is not given here.
# Columns and labels:
# [1] = test system: Fibroblasts derived from human normal skin (CRL-1836; ATCC); assay: Toxicity test: number of viable cells with Cell Counting Kit-8; details: for Number of Viable Cells (cells): cells after 72 hours of culture
# Description: (§1) For the cells after the culture solution was collected in Example 6, the number of viable cells was counted in the same manner as in Example 4.
# (§2) For the cells after the culture solution was collected in Example 10, the number of viable cells was counted as in the same manner in Example 4.
# (§3) For the cells after the culture solution was collected in Example 14, the number of viable cells was counted in the same manner as in Example 4.
# (§4) For the cells after the culture solution was collected in Example 17, the number of viable cells was counted in the same manner as in Example 4.
# (§5) For the cells after the culture solution was collected in Example 20, the number of viable cells was counted in the same manner as in Example 4.
# [2] = test system: Fibroblasts derived from human normal skin (CRL-1836; ATCC)
# Description: as §1, §2, §3, §4, §5
compound,measurement,setting,value
CC(C)C[C@H](N)C(=O)N[C@@H](CCC(=O)O)C(=O)N[C@@H](Cc1c[nH]cn1)C(=O)N[C@@H](C)C(N)=O [C-terminal-Amidated LEHA] (H-LEHA-NH2),Number of Viable Cells (cells),[1]; peptide 10 μg/ml,2.6 × 10^4 cells
"CC(C)C[C@H](N)C(=O)N[C@@H](CC(=O)O)C(=O)N[C@@H](Cc1c[nH]cn1)C(=O)N[C@@H](C)C(=O)O [LDHA, Leu-Asp-His-Ala] (H-LDHA-OH)","number of viable cells, result in words","[1]; 1 μg/ml, versus control",no decrease
same,Number of Viable Cells (cells),[1]; peptide 1 μg/ml,3.3 × 10^4 cells
"CC(C)C[C@H](N)C(=O)N[C@@H](CCC(=O)O)C(=O)N[C@@H](Cc1c[nH]cn1)C(=O)O [LEH, Leu-Glu-His] (H-Leu-Glu-His-OH)","number of viable cells, result in words",[2],no significant decrease
"CC(C)C[C@H](N)C(=O)N[C@@H](CCC(=O)O)C(=O)N[C@@H](Cc1c[nH]cn1)C(=O)N[C@@H](C)C(=O)O [LEHA, Leu-Glu-His-Ala] (H-LEHA-OH)","number of viable cells, result in words","[1]; LEH and LEHA peptides prepared from soy protein, stated in present tense",no significant decrease
same,Number of Viable Cells (cells),[1]; peptide 10 μg/ml,2.9 × 10^4 cells
"CC(C)C[C@H](N)C(=O)N[C@@H](CCC(=O)O)C(=O)N[C@@H](CCCCN)C(=O)N[C@@H](C)C(=O)O [LEKA, Leu-Glu-Lys-Ala] (H-LEKA-OH)","number of viable cells, result in words","[1]; 10 μg/ml, versus control",no decrease
same,Number of Viable Cells (cells),[1]; peptide 10 μg/ml,3.6 × 10^4 cells
CC(=O)N[C@@H](CC(C)C)C(=O)N[C@@H](CCC(=O)O)C(=O)N[C@@H](Cc1c[nH]cn1)C(=O)N[C@@H](C)C(=O)O [N-terminal-Acetylated-LEHA] (Ac-LEHA-OH),Number of Viable Cells (cells),[1]; peptide 10 μg/ml,2.8 × 10^4 cells
"LEHAF [LEHAF, Leu-Glu-His-Ala-Phe]","number of viable cells, result in words","[1]; 1 or 3 μg/ml, versus control",no significant decrease
same,Number of Viable Cells (cells),[1]; peptide 1 μg/ml,3.0 × 10^4 cells
same,Number of Viable Cells (cells),[1]; peptide 3 μg/ml,3.0 × 10^4 cells
